Reference: article PMC10765884, “MC180295 is a highly potent and selective CDK9 inhibitor with preclinical in vitro and in vivo efficacy in cancer” (Clinical Epigenetics, 2024)
Read-outs that look alike come from different tables or passages of the source.

Assays:
CT26.CL25 cells = assay: CT26.CL25 colon cancer model in B6 mice with/without CD8 depletion; assay type: in vivo; conditions: CT26.CL25 s.c. in B6 mice, MC180295 20 mg/kg i.p. q.o.d., DAC 0.5 mg/kg i.p. daily
Description: Fig. 5 Survival and antitumor effects of MC180295, DAC, or their combination, with/without CD8 + T cells. A 20 mg/kg MC180295 was administered (i.p.) q.o.d. 0.5 mg/kg DAC was administered (i.p.) daily. Mouse survival in days. B Survival of B6 mice, after CD8 depletion, using an anti-CD8 antibody. 20 mg/kg MC180295 was administered (i.p.) q.o.d. 0.5 mg/kg DAC was administered (i.p.) daily. C Antitumor effects of MC180295 with and without CD8 depletion, using an anti-CD8 antibody. B6 mice were inoculated (s.c.) with 5 × 10^5 CT26.CL25 cells. Eight days later, when tumors were palpable, 20 mg/kg MC180295 was administered (i.p.) q.o.d. 0.5 mg/kg DAC was administered (i.p.) daily. Tumor sizes were measured using a caliper and calculated over vehicle. D Antitumor effects of DAC, with and without CD8 depletion, using an anti-CD8 antibody. B6 mice were inoculated (s.c.) with 5 × 10^5 CT26.CL25 cells. Eight days later, when tumors were palpable, 20 mg/kg MC180295 was administered (i.p.) q.o.d. 0.5 mg/kg DAC was administered (i.p.) daily. Tumor sizes were measured using a caliper and calculated over vehicle. E Antitumor effects of DAC + MC180295, with and without CD8 depletion, using an anti-CD8 antibody. B6 mice were inoculated (s.c.) with 5 × 10^5 CT26.CL25 cells. Eight days later, when tumors were palpable, 20 mg/kg MC180295 was administered (i.p.) q.o.d. 0.5 mg/kg DAC was administered (i.p.) daily. Tumor sizes were measured using a caliper and calculated over vehicle. Significances were calculated using log-rank (Mantel-Cox) or Student's T tests. Data shown as means ± SEMs
For the s.c. SW48 model, 2 × 10^6 cells were injected into the flanks of randomly assigned, gender-matched 8–10-week-old NSG mice. 20 mg/kg MC180379, MC180380, or MC180295 was injected (i.p.), every other day, when the tumors were palpable, 11 days after engraftment, until endpoints were met. Mice were sacrificed before tumor volumes exceeded 400 mm^2 (endpoint for this model). For the s.c. HT29 model, 2 × 10^6 cells were injected into the flanks of randomly assigned, gender-matched, 8–10-week-old NSG mice. […]

CDK16/cyclin Y (PCTAIRE) = molecular target: T1, CDK16/cyclin Y (PCTAIRE) (Homo sapiens, UniProt Q00536); assay: CDK enzymatic assay; assay type: biochemical; conditions: Fig. 1A
T1 construct: purchased Reaction Biology Corp
Description: (§1) CDK enzymatic assays were performed by Reaction Biology Corp. (Malvern, PA), using 10 µM ATP for determining MC180295 IC50 values for each CDK family member for which assays were available. Kinase enzymatic assays were also performed by Nanosyn (Santa Clara, CA), using microfluidic technology and MC180295 IC50 curves against 10 CDKs. Selectivity against CDK9 was confirmed for the enantiomers at Reaction Biology Corp. (Malvern, PA).

CDK9/cyclin T1 = CDK9/cyclin T1 (Homo sapiens, UniProt P50750); assay: CDK enzymatic assay; assay type: biochemical; conditions: Fig. 1A
Description: as §1

CDK14/cyclin Y (PFTK1) = molecular target: T2, CDK14/cyclin Y (PFTK1) (Homo sapiens, UniProt O94921); assay: CDK enzymatic assay; assay type: biochemical; conditions: Fig. 1A
T2 construct: purchased Reaction Biology Corp
Description: as §1

CDK19/cyclin C = molecular target: T3, CDK19/cyclin C (Homo sapiens, UniProt Q9BWU1); assay: CDK enzymatic assay; assay type: biochemical; conditions: Fig. 1A
T3 construct: purchased Reaction Biology Corp
Description: as §1

CDK9/cyclin T2 = molecular target: T4, CDK9/cyclin T2 (Homo sapiens, UniProt P50750); assay: CDK enzymatic assay; assay type: biochemical; conditions: Fig. 1A
T4 construct: purchased Reaction Biology Corp
Description: as §1

CDK6-Cyclin D3 = molecular target: T5, CDK6-Cyclin D3 (Homo sapiens, UniProt Q00534); assay: CDK enzymatic assay; assay type: biochemical; conditions: Fig. 1A
T5 construct: purchased Nanosyn
Description: as §1

CDK18/cyclin Y (PCTK3) = molecular target: T6, CDK18/cyclin Y (PCTK3) (Homo sapiens, UniProt Q07002); assay: CDK enzymatic assay; assay type: biochemical; conditions: Fig. 1A
T6 construct: purchased Reaction Biology Corp
Description: as §1

CDK8/cyclin C = molecular target: T7, CDK8/cyclin C (Homo sapiens, UniProt P49336); assay: CDK enzymatic assay; assay type: biochemical; conditions: Fig. 1A
T7 construct: purchased Reaction Biology Corp
Description: as §1

CDK17/cyclin Y (PCTK2) = molecular target: T8, CDK17/cyclin Y (PCTK2) (Homo sapiens, UniProt Q00537); assay: CDK enzymatic assay; assay type: biochemical; conditions: Fig. 1A
T8 construct: purchased Reaction Biology Corp
Description: as §1

CDK9/cyclin K = molecular target: T9, CDK9/cyclin K (Homo sapiens, UniProt P50750); assay: CDK enzymatic assay; assay type: biochemical; conditions: Fig. 1A
T9 construct: purchased Reaction Biology Corp
Description: as §1

Pharmacokinetics in rats = assay type: in vivo; conditions: rat, plasma, iv, 1 mg/kg; for AUC(0-t): read-out: AUC24hr; for Vd: read-out: Vss

T8 sequence (Q00537 whole entry): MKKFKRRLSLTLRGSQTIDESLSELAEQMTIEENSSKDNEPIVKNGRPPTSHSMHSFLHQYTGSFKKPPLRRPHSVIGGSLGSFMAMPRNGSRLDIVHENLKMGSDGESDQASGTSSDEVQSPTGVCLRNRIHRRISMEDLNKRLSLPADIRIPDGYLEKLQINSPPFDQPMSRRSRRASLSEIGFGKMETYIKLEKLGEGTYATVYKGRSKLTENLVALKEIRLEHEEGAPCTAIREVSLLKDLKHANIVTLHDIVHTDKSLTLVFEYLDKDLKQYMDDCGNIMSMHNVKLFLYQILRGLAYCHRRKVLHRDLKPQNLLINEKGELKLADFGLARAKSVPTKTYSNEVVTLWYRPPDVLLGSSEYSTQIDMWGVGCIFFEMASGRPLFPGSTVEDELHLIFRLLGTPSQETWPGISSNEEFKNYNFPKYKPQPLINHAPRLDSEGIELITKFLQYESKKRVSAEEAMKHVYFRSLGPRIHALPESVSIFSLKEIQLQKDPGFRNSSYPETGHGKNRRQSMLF
T8 sequence (Q8ND76 whole entry partner): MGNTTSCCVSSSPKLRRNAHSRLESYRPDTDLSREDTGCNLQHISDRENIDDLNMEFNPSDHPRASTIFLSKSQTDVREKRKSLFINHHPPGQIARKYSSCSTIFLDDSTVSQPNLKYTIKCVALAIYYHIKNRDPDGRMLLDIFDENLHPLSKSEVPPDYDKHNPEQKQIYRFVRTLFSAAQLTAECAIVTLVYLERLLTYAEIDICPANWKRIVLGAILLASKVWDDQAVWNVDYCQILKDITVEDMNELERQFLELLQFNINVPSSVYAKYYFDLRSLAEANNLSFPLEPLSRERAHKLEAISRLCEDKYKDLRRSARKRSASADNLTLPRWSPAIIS
T6 sequence (Q07002 whole entry): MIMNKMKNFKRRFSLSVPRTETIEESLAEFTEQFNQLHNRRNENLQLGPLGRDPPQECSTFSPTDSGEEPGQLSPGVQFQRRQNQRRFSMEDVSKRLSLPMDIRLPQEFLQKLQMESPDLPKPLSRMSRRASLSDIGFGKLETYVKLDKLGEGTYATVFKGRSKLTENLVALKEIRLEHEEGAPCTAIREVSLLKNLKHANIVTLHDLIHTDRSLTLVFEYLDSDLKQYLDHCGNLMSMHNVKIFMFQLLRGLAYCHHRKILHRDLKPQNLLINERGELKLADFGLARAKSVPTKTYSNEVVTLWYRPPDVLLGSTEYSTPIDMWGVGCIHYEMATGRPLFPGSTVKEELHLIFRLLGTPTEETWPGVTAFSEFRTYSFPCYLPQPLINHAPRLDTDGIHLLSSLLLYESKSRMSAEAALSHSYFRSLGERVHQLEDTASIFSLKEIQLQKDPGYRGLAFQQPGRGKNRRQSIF
T6 sequence (Q8ND76 whole entry partner): as the sequence (Q8ND76 whole entry partner) above
T7 sequence (P49336 whole entry): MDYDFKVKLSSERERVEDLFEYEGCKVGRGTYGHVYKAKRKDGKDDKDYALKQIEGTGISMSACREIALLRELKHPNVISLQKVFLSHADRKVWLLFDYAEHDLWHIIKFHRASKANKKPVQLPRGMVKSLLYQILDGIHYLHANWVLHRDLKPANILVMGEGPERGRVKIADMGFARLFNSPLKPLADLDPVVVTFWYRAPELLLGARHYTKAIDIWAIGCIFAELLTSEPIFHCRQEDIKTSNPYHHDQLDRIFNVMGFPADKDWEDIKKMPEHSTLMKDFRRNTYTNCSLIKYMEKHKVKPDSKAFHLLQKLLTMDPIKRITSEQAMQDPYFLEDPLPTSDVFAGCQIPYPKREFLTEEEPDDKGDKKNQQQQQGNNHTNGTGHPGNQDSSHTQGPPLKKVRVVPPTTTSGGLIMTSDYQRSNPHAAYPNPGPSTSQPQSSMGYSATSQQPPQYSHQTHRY
T7 sequence (P24863 whole entry partner): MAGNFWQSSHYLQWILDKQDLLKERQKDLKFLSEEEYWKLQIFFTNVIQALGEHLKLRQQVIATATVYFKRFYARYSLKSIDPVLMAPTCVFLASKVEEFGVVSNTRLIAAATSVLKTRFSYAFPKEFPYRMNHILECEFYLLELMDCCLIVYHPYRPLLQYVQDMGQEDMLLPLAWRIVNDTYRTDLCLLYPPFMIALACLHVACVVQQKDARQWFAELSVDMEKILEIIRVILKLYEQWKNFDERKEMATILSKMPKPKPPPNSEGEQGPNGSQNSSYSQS
T3 sequence (Q9BWU1 whole entry): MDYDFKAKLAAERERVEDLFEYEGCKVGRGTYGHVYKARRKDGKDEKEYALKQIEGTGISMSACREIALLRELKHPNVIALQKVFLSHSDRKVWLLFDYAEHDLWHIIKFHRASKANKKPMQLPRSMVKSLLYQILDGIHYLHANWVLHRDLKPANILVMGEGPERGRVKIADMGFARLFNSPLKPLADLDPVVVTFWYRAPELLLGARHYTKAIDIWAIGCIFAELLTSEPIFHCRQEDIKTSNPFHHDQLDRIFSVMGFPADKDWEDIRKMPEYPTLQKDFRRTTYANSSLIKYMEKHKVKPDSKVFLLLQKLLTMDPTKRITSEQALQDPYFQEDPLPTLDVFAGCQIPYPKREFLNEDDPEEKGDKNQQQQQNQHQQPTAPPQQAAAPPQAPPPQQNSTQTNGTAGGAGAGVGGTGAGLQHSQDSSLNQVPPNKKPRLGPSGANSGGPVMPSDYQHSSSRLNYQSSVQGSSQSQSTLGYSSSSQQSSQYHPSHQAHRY
T3 sequence (P24863 whole entry partner): as the sequence (P24863 whole entry partner) above
T1 sequence (Q00536 whole entry): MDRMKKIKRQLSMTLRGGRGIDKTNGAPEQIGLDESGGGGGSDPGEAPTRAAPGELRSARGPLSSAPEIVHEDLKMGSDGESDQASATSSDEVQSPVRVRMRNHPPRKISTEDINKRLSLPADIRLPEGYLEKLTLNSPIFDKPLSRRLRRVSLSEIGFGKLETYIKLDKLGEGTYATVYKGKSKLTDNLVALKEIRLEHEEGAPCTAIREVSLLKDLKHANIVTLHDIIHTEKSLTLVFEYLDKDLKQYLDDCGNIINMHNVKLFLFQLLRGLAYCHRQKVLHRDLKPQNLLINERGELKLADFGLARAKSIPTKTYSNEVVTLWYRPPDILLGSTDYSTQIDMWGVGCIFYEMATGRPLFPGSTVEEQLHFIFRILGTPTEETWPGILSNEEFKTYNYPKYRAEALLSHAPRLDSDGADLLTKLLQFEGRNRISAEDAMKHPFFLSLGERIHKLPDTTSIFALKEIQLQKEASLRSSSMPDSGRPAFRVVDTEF
T1 sequence (Q8ND76 whole entry partner): as the sequence (Q8ND76 whole entry partner) above
T4 sequence (P50750 whole entry): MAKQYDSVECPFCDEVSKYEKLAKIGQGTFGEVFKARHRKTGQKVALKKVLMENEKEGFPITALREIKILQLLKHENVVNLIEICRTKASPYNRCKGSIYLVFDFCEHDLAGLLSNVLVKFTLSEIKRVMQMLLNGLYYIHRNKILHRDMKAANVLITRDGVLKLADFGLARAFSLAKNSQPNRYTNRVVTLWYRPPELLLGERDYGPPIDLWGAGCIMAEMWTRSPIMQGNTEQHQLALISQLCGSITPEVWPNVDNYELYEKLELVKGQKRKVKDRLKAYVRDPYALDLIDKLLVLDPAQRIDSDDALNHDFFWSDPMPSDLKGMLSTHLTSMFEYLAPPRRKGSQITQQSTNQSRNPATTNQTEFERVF
T4 sequence (O60583 whole entry partner): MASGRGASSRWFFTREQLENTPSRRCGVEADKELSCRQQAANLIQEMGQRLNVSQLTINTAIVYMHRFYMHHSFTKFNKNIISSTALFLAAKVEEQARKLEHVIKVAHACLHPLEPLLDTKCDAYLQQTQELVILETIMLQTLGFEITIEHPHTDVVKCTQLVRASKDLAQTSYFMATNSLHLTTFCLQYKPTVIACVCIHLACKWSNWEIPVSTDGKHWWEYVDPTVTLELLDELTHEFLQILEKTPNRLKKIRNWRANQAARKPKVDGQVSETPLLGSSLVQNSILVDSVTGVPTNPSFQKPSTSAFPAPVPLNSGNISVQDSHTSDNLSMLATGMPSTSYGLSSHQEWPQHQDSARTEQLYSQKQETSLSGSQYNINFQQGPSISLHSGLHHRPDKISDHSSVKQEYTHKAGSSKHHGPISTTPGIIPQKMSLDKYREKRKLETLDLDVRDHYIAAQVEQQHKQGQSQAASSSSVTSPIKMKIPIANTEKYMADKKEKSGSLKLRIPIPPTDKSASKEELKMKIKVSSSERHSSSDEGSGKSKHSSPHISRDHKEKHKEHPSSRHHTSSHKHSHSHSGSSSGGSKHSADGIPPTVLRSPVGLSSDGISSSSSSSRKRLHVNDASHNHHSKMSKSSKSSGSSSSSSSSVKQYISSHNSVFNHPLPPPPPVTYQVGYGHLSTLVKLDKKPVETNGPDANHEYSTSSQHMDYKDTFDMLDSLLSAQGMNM
T9 sequence (P50750 whole entry): as the sequence (P50750 whole entry) above
T9 sequence (O75909 whole entry partner): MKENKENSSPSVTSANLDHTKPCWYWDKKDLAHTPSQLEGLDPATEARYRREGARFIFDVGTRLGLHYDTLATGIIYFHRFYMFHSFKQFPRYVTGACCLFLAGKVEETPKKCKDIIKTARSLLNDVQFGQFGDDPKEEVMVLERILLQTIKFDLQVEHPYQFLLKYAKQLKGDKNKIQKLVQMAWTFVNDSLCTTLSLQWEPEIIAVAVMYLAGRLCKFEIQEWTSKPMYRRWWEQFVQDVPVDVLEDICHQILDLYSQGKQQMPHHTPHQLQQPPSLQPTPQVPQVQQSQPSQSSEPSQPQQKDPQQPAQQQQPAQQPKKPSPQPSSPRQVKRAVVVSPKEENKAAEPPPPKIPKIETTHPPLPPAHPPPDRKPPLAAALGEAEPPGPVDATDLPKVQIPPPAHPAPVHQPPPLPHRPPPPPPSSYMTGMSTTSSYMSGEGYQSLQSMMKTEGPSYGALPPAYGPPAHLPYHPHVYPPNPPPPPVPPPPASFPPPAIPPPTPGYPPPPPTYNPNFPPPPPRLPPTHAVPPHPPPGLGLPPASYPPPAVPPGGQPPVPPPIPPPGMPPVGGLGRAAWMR

Q: Which results are given for `Nc1nc(N[C@H]2C[C@@H]3CC[C@H]2C3)sc1C(=O)c1ccccc1[N+](=O)[O-]` (relative stereo) [MC180295]?
A: survival (CT26.CL25 cells): extended survival; tumor size (CT26.CL25 cells): significantly decreased tumor size; IC50 (CDK16/cyclin Y (PCTAIRE)): 1180 nM; IC50 (CDK9/cyclin T1): 12 nM; IC50 (CDK14/cyclin Y (PFTK1)): 528 nM; IC50 (CDK19/cyclin C): 814 nM; IC50 (CDK9/cyclin T2): 3 nM; IC50 (CDK6-Cyclin D3): 712 nM; IC50 (CDK18/cyclin Y (PCTK3)): 1060 nM; IC50 (CDK8/cyclin C): 501 nM; IC50 (CDK17/cyclin Y (PCTK2)): 438 nM; IC50 (CDK9/cyclin K): 49 nM; half-life (Pharmacokinetics in rats; given IV to rats, read-out: half-life (converted)): ~840 min; Cmax (Pharmacokinetics in rats; rats, IV 1 mg/kg, Mean): 635 ng/mL; clearance (Pharmacokinetics in rats; rats, IV 1 mg/kg, Mean): 5.2 mL/min; AUC(0-t) (Pharmacokinetics in rats; rats, IV 1 mg/kg, Mean): 679 ng·h/mL; half-life (Pharmacokinetics in rats; rats, IV 1 mg/kg, Mean, read-out: T1/2 (converted)): 838 min; Vd (Pharmacokinetics in rats; rats, IV 1 mg/kg, Mean): 4.46 L; Cmax (Pharmacokinetics in rats; rats, IV 1 mg/kg, Rat -1): 385 ng/mL; clearance (Pharmacokinetics in rats; rats, IV 1 mg/kg, Rat -1): 6.4 mL/min; AUC(0-t) (Pharmacokinetics in rats; rats, IV 1 mg/kg, Rat -1): 470 ng·h/mL; half-life (Pharmacokinetics in rats; rats, IV 1 mg/kg, Rat -1, read-out: T1/2 (converted)): 1070 min; Vd (Pharmacokinetics in rats; rats, IV 1 mg/kg, Rat -1): 6.87 L; Cmax (Pharmacokinetics in rats; rats, IV 1 mg/kg, Rat -2): 568 ng/mL; clearance (Pharmacokinetics in rats; rats, IV 1 mg/kg, Rat -2): 5.1 mL/min; AUC(0-t) (Pharmacokinetics in rats; rats, IV 1 mg/kg, Rat -2): 687 ng·h/mL; half-life (Pharmacokinetics in rats; rats, IV 1 mg/kg, Rat -2, read-out: T1/2 (converted)): 599 min; Vd (Pharmacokinetics in rats; rats, IV 1 mg/kg, Rat -2): 3.74 L; Cmax (Pharmacokinetics in rats; rats, IV 1 mg/kg, Rat -3): 951 ng/mL; clearance (Pharmacokinetics in rats; rats, IV 1 mg/kg, Rat -3): 4.1 mL/min; AUC(0-t) (Pharmacokinetics in rats; rats, IV 1 mg/kg, Rat -3): 879 ng·h/mL; half-life (Pharmacokinetics in rats; rats, IV 1 mg/kg, Rat -3, read-out: T1/2 (converted)): 840 min; Vd (Pharmacokinetics in rats; rats, IV 1 mg/kg, Rat -3): 2.76 L
